{
  "source": "patent US20090226427A1",
  "about": "“NOVEL PHARMACEUTICAL COMPOSITIONS FOR MODULATING ANGIOGENESIS” (priority 1999, published 2009)",
  "key": {"[1]": {"system": "endothelial cells", "experiment": "sandwich Matrigel model of endothelial tube formation", "format": "cell-based", "conditions": "non-transfected cells", "method": "Indeed, while endothelial cells culture leads to pavimentous organization when plated on dishes (FIG. 1A), endothelial cells progressively form tubes when cultured within gels of collagen, fibrin or Matrigel®. Accordingly, in the “3-D model”, endothelial cells are mixed to the matrix before gelification and tube-like structures are obtained after 48-72 hours (FIG. 1B); this model, however, reduces the efficiency of transfection. In the “sandwich model”, cells are first cultured to confluence on a first layer of matrix, and are then covered by a second matrix layer; cells are easily transfected in the interval preceding the addition of the upper layer. The latter technique allows the formation of endothelial tubes in 3-6 hours; the tube structures are mature 12 hours after induction (FIG. 1C) and then start to regress.\nOf note, when endothelial cells were transfected with an irrelevant construct (β-galactosidase-encoding), no change in the rate and extent of tube formation was observed."}, "[2]": {"system": "CMECs", "experiment": "angiogenesis assay on Matrigel, CMECs", "format": "cell-based, Mouse", "method": "(§1) Tube formation was observed using an inverted phase-contrast microscope (Zeiss Axiovert 25), and images were captured with a videographic system (Pixera Pro). The tube formation index was determined by measuring the length of tubes in random fields from each well using the Image J program. Statistical analyses were made using the Student t test or one-way ANOVA where appropriate."}, "[3]": {"system": "AoECs", "experiment": "aortic ring culture in Matrigel, AoEC network organization", "format": "cell-based, rat", "method": "as §1, with “Cultures of AoECs and CoMECs organized in a network were then challenged at day 5 by incubation under serum-free conditions for 24 to 48 hours with or without some of the drugs mentioned above. […] Tube” for “Tube”"}, "[4]": {"system": "HUVECs", "experiment": "angiogenesis assay on Matrigel, HUVECs", "format": "cell-based, human", "conditions": "HUVECs; 0.1 μmol/L", "method": "as §1\nTransfection and peptide loading was performed by reversible permeabilization: HUVECs were transfected with the hsp90 cDNA (a gift from Dr W. C. Sessa, Yale University, New Haven, Conn.) using Lipofectamine (Invitrogen) according to the manufacturer's protocol; an irrelevant plasmid encoding β-galactosidase was used as a control to obtain identical amounts of transfected DNA in each condition. HUVECs were also reversibly permeabilized, as previously reported (Feron et al. J Biol. Chem. 1998; 273:30249-30254), to introduce synthetic peptides derived from the caveolin scaffolding domain (CSD)."}, "[5]": {"system": "caveolin/eNOS interaction", "experiment": "caveolin/eNOS co-immunoprecipitation, AoECs", "format": "cell-based, rat"}, "[6]": {"system": "caveolin", "experiment": "caveolin immunoblot, CMECs", "format": "cell-based, Mouse", "conditions": "3-hour exposure of CMECs", "from_the_text": "(§2) Therefore, the effects of statin exposure on the absolute amounts of caveolin in AoECs and CMECs was examined."}, "[7]": {"system": "caveolin", "experiment": "caveolin immunoblot, AoECs", "format": "cell-based, rat", "conditions": "n=3, P<0.01", "from_the_text": "as §2"}, "[8]": {"system": "caveolin", "experiment": "caveolin immunoblot, AECs", "format": "cell-based, Bovine", "conditions": "isolated aortic ECs after statin treatment", "from_the_text": "as §2"}, "[9]": {"system": "caveolin", "experiment": "caveolin immunoblot, CoMECs", "format": "cell-based, human", "conditions": "microvascular outgrowing CoMECs", "from_the_text": "as §2"}, "[10]": {"system": "phospho-Ser1177-eNOS", "experiment": "phospho-Ser1177 eNOS immunoblot, CMECs", "format": "cell-based, Mouse"}, "[11]": {"system": "phospho-eNOS", "experiment": "phospho-eNOS immunoblot and hsp90/eNOS interaction, AoECs", "format": "cell-based, rat"}, "[12]": {"system": "Akt/hsp90 interaction", "experiment": "Akt/hsp90 co-immunoprecipitation, statin-exposed HUVECs", "format": "cell-based, human", "conditions": "5-minute exposure"}, "[13]": {"system": "hsp90", "experiment": "hsp90 tyrosine phosphorylation, HUVECs", "format": "cell-based, human"}, "[14]": {"system": "caveolin/eNOS interaction", "conditions": "CMECs; P>0.1, n=3"}, "[15]": {"system": "phospho-Ser473-Akt", "experiment": "phospho-Ser473-Akt immunoblot, statin-exposed HUVECs", "conditions": "5-minute incubation"}, "[16]": {"system": "phospho-Ser1177-eNOS", "experiment": "phospho-Ser1177-eNOS immunoblot, statin-exposed HUVECs"}, "[17]": {"system": "eNOS/hsp90 interaction", "experiment": "eNOS/hsp90 co-immunoprecipitation, statin-exposed HUVECs", "conditions": "5-minute exposure"}, "[18]": {"system": "phospho-Akt/eNOS interaction", "experiment": "eNOS/phospho-Akt co-immunoprecipitation, statin-exposed HUVECs"}, "[19]": {"system": "TLT cells (hepatocarcioma)", "experiment": "TLT tumor mouse model, tumor volume", "format": "in vivo, mice", "conditions": "immunological detection of HA tag in tumor endothelial cells", "from_the_text": "Hepatocarcinoma cells are able to grow as a tumor after injection in the leg of mice is dependent on the ability of endothelial cells to develop new vessels to “feed” the tumor. This vessel development depends on the capacity of endothelial cells to produce NO through eNOS activation in these cells, itself regulated by the post-translational modulators it was previously identified in the in vitro experiments, e.g. caveolin-1.\nTumor mouse model: 30-40 g male NMRI mice received an IP injection of TLT cells (hepatocarcioma). Ascite cells were recovered in physiological serum and IM-injected in the posterior left leg of ketamine/xylazin anesthetized mice. Tumors grew for 9-12 days to reach 8±1 mm of diameter, the original diameter for treatment (caveolin plasmid injection) at day 0.\nThe effect of injection of plasmids encoding caveolin-1 has been evaluated on the volume of the growing tumor after tumor implantation in the leg (FIG. 2). Caveolin-encoding plasmids were injected either intravenously or directly in the tumor. The working hypothesis was that heterologous over-expression of caveolin-1 in endothelial cells will inhibit eNOS activation in endothelial cells, with a subsequent inhibition of angiogenesis that will result in a decrease in tumor growth."}},
  "data": [
    {"molecule": "CC(C)c1c(C(=O)Nc2ccccc2)c(-c2ccccc2)c(-c2ccc(F)cc2)n1CC[C@@H](O)C[C@@H](O)CC(=O)O", "note": "[atorvastatin]", "values": [
      {"measurement": "endothelial tube formation", "setting": "[1]", "value": "accelerated the endothelial tube formation"},
      {"measurement": "time of maximal proangiogenic effect", "setting": "[2]; CMECs on Matrigel", "value": 3, "unit": "h"},
      {"measurement": "formation of capillary-like structures on Matrigel", "setting": "[2]; freshly isolated CMECs, atorvastatin 1 _mol/L", "value": "rapidly led to the formation of capillary-like structures"},
      {"measurement": "serum-driven formation of the AoEC network", "setting": "[3]; atorvastatin present during 5 to 7 days of cell growth", "value": "did not significantly influence"},
      {"measurement": "network organization after serum deprivation", "setting": "[3]; statin pretreatment, then deprived of serum for 48 hours", "value": "dramatically stabilized the network organization"},
      {"measurement": "tube formation", "setting": "[4]", "value": "stimulated tube formation"},
      {"measurement": "eNOS found in the caveolin immunoprecipitate", "setting": "[5]; AoECs exposed to atorvastatin for 5 days, n=6, 44+/−8% without statin", "value": "8+/−5%"},
      {"measurement": "change in amount of caveolin immunoprecipitated by eNOS antibodies", "setting": "[5]; atorvastatin-treated AoECs, P<0.01, n=3", "value": "−73+/−7%"},
      {"measurement": "abundance of caveolin", "setting": "[6]", "value": "did not alter"},
      {"measurement": "reduction of the AoEC pool of caveolin", "setting": "[7]", "value": "26+/−5%"},
      {"measurement": "caveolin abundance", "setting": "[8]", "value": "significant decrease in caveolin abundance"},
      {"measurement": "caveolin expression", "setting": "[9]", "value": "did not any alteration in caveolin expression"},
      {"measurement": "eNOS phosphorylation (Ser1177)", "setting": "[10]", "value": "did produce eNOS phosphorylation"},
      {"measurement": "phosphorylation of eNOS", "setting": "[11]; AoECs, 5-day treatment then 48-hour period in the absence of atorvastatin", "value": "no effect"},
      {"measurement": "amounts of phospho-eNOS and hsp90/eNOS interaction", "setting": "[11]; uninterrupted exposure of outgrowing AoECs (or isolated AECs)", "value": "significant increase"},
      {"measurement": "interaction of hsp90 with Akt", "setting": "[12]", "value": "sufficient to promote the interaction of hsp90 with both Akt and eNOS"},
      {"measurement": "tyrosine phosphorylation of hsp90", "setting": "[13]", "value": "rapidly and dose-dependently induced"},
      {"measurement": "amount of caveolin immunoprecipitated by eNOS antibodies", "setting": "[14]", "value": "not significantly altered"},
      {"measurement": "Akt phosphorylation", "setting": "[15]", "value": "sufficient to induce Akt phosphorylation"},
      {"measurement": "eNOS phosphorylation", "setting": "[16]; 5-minute incubation", "value": "did not promote eNOS phosphorylation"},
      {"measurement": "eNOS phosphorylation", "setting": "[16]; 30 minutes exposure", "value": "produced eNOS phosphorylation"},
      {"measurement": "interaction of hsp90 with eNOS", "setting": "[17]", "value": "sufficient to promote the interaction of hsp90 with both Akt and eNOS"},
      {"measurement": "time to maximum of the Akt-hsp90-eNOS mutual interaction", "setting": "[18]", "value": "1 to 2", "unit": "h"},
      {"measurement": "association of Akt with eNOS", "setting": "[18]; 5-minute exposure", "value": "insufficient to promote the association of Akt with eNOS"}
    ]},
    {"molecule": "recombinant (HA-tagged-) caveolin: recombinant caveolin-1 tagged with hemagglutinin antigen, expressed from the injected plasmid (protein, UniProt Q03135 2-178, looked up, HA tag, recombinant caveolin-1 tagged with hemagglutinin antigen, expressed from the injected plasmid) Caveolin-1: SGGKYVDSEGHLYTVPIREQGNIYKPNNKAMADELSEKQVYDAHTKEIDLVNRDPKHLNDDVVKIDFEDVIAEPEGTHSFDGIWKASFTTFTVTKYWFYRLLSALFGIPMALIWGIYFAILSFLHIWAVVPCIKSFLIEIQCISRVYSIYVHTVCDPLFEAVGKIFSNVRINLQKEI", "values": [
      {"measurement": "extent of recombinant caveolin expression in relation to tumor volume", "setting": "[19]", "value": "inversely correlated to the tumor volume"}
    ]}
  ]
}
